Source: patent US20260258420A1, “COMPOSITIONS AND METHODS FOR THE TREATMENT OF HUMAN PAPILLOMAVIRUS-DRIVEN CANCERS” (priority 2023, published 2026)

Experiments:
Format in all cases: cell-based
[1] = test system: HPV-positive cell lines (CASKI and SIHA); test: Apoptosis immunoblot after BUB1B or MAD2L1 siRNA; conditions: 300 nmol/L, 24 hours
Procedure: FIG. 5A, two HPV-positive cell lines (CASKI and SIHA) were transfected with BUB1B or MAD2L1 siRNA and then treated for 24 hours with 300 nmol/L alisertib before lysis and immunoblotting with the indicated antibodies. FIG. 5B, TRIP13 was transiently overexpressed (Ox) in 2 HPV-positive cell lines that were treated for 24 hours with 300 nmol/L alisertib before lysis and immunoblotting for the indicated proteins. FIG. 5C, HPV-positive cell lines with TRIP13 overexpression were treated with 300 nmol/L alisertib for 32 hours and then stained for annexin V-PE/7AAD staining and analysis with flow cytometry to measure apoptosis. The bar graph represents the ratio of apoptosis (late plus early) among different groups. Values are the means±the standard deviations for 3 independent experiments. ** P≤0.01; *** P≤0.001; unpaired, 2-tailed Student t-test. FIG. 5D, HN31 (left panel) and MDA886LN (right panel) cells expressing RB1 or control shRNA were transfected with a plasmid for TRIP13. After 24 hours, cells were treated with 300 nmol/L alisertib and then lysed for immunoblotting. Cl, cleaved; Fl, full length; GAPDH, glyceraldehyde 3-phosphate dehydrogenase. […]

[2] = test system: 16 HPV-positive HNSCC and cervical squamous cancer cell lines; test: High-throughput drug screen (HTDS), cell death by AOC_LD, HPV-positive cell lines
Procedure: The concordance correlation coefficient was computed to assess the reproducibility of the normalized growth rates of the 2 replicates. […] A chi-square test was applied to compare drug classification and the cluster membership. The Fisher exact test was applied to compare mutations status (wild-type and mutant) and drugs' response data (sensitive and resistant).
The effects of 864 unique drugs from 51 classes was tested in 16 HPV-positive and 17 HPV-negative HNSCC and cervical squamous cancer cell lines (Table 2) that were characterized previously (Kaiu, et al., Oncotarget 2017; 8(49):86369-83).

[3] = test system: HPV-negative cancer cell lines (UMSCC19, FaDu, and HN31); test: BrdU-TUNEL apoptosis assay, HPV-negative cell lines; conditions: 50 nmol/L barasertib or 200 nmol/L alisertib, 72 hours or 2 doubling times
Procedure: BrdU positive apoptotic cells were detected and quantified. The bar graph indicates the percentage of apoptotic cells with fragmented DNA in HPV-positive and HPV-negative cell lines. Values are the means±the standard deviations for 3 independent experiments. FIG. 2B and FIG. 2C show immunoblots of cleaved PARP (Cl. PARP) and cleaved caspase-3 (Cl. Caspase-3) levels in 3-HPV positive and 3 HPV-negative cell lines after barasertib or alisertib treatment for 2 doubling times (FIG. 2B) or 72 hours (FIG. 2C). […] UM47, UMSCC47; GAPDH, glyceraldehyde 3-phosphate dehydrogenase.
To measure apoptosis, TUNEL staining was performed with an APO-BRDU Kit (BD Biosciences, San Jose, CA) and annexin V/propidium iodide staining with an FITC Annexin V Apoptosis Detection Kit PE (eBioscience, San Diego, CA) as described previously (Kalu, et al., Cancer Lett 2018; 431:64-72). […] Data were acquired with a 3-laser, 10-color Gallios flow cytometer (Beckman Coulter, Brea, CA) and analyzed using Kaluza software, RRID:SCR_016182 (Beckman Coulter, Brea, CA). […] Briefly, after drug treatment, cells were incubated with Senescence Green Probe, a fluorescence-based reagent that contains 2 galactoside moieties that make it specific to […]. The enzyme-cleaved product is retained within the cell, and it emits a fluorogenic signal that was measured at 490/514 nm using a flow cytometer. […]

COc1cc(Nc2ncc3c(n2)-c2ccc(Cl)cc2C(c2c(F)cccc2OC)=NC3)ccc1C(=O)O [ALISERTIB, alisertib]
apoptosis with reduced levels of Mad2 or BUB1B [1]: rescued the cells from alisertib-induced apoptosis
HPV positive Resistant (number of cell lines) ([2]; resistant = AOC_LD 0): 6
HPV positive Sensitive (number of cell lines) ([2]; sensitive = AOC_LD greater than 0): 10
apoptosis (TUNEL) [3]: no appreciable levels of apoptosis
